Assay results: PMC6100512, “In-Vitro Activity of Silybin and Related Flavonolignans against Leishmania infantum and L. donovani” (Molecules : A Journal of Synthetic Chemistry and Natural …, 2018)

How the values were obtained:
[1] = system: Ld promastigotes; assay: Multiplication of Ld promastigotes in vitro (CellTiter-Glo, 24 h); format: cell-based, L. donovani; settings: Leishmania donovani, 120 µM, compared to untreated cultures, mean ± SD, read-out: Reduction (%) of multiplication, L. donovani promastigotes
Protocol: (§1) Growth was estimated by the addition of CellTiter-Glo® (Promega, Madison, WI, USA) (1:1) in 96-well microtiter white plates (Costar, Corning). After 10 min incubation (light protected, room temperature), luminescence was determined with FLUOstar Omega (BMG Labtech) reader. Sensitivity of Ld was similarly performed with promastigotes exposed to 120 μM. Control cultures (medium, untreated promastigotes, promastigotes treated with 0.2 μM AmB) were included. Experiment was carried out in triplicate and results expressed as % of inhibition of untreated control. Approximate IC50 values of the flavonolignans showing the highest inhibitory activity against Li mid-log-phase promastigotes were determined using dose-response curves. […] The compound with the highest activity, DhiS-A, was assayed against Ld promastigotes using the latter dilution series and the same culture conditions as above. For comparative purposes, mid-log promastigotes of Li and Ld were exposed to established anti-Leishmania agents: AmB (0.0078 μ[…] and 1.0 μM); […]

[2] = system: Li UCM9 promastigotes; assay: Multiplication of Li promastigotes in vitro (CellTiter-Glo, 24 h); format: cell-based, Leishmania infantum; settings: for inhibition of growth at 120 µM: compared to untreated cultures, mean ± SD, read-out: Reduction (%) of multiplication, L infantum promastigotes
Protocol: as §1

[3] = system: Li promastigotes; assay: Drug combination with DhiS-A, Chou-Talalay method (CalcuSyn); format: cell-based, Leishmania infantum; settings: for CI value of combination Dn + DhiS-A: constant ratio Dn:DhiS-A (AmB 0.01:15; Sb^III 1:1; PMM 5:1); for Dose Required of Dn in combination with DhiS-A: computer-simulated; for DRI of Dn in combination with DhiS-A: fold dose reduction vs single agent; for Type of interaction with DhiS-A: Li promastigotes, fixed ratios AmB 0.01:15, Sb^III 1:1, PMM 5:1 (Dn:DhiS-A)
Protocol: Fixed-combination ratios of drugs were based on the IC50 values determined for the individual molecules. Mid-log-phase promastigotes of Li were exposed for 24 h at constant ratios of 0.01:15 (AmB:DhiS-A), 1:1 (Sb^III:DhiS-A) and 5:1 (PMM:DhiS-A). Dose–response curves of the combinations were analyzed with the Chou–Talalay method, based on the theorem of combination index (CI)-isobologram and CalcuSyn software. This method allows the evaluation of the type of interaction between two molecules according to mass action law. Results can be used to determine quantitatively the synergy (CI < 1), additive effect (CI = 1) or antagonism (CI > 1) of combinations. Moreover, the program allows the calculation of the drug reduction index (DRI): dose reduction in drug combinations to reach a given inhibition compared to the activity of the individual drugs.

## COc1cc([C@H]2Oc3ccc([C@H]4Oc5cc(O)cc(O)c5C(=O)[C@@H]4O)cc3O[C@@H]2CO)ccc1O [Isosilybin A, isosilybin A]
[1]
  inhibition of growth at 120 µM: 30.6 ± 5.85%
[2]; Leishmania infantum, 24 h
  inhibition of growth at 120 µM: 6.94 ± 6.43%

## NC[C@@H]1O[C@H](O[C@H]2[C@@H](O)[C@H](O[C@@H]3[C@@H](O)[C@H](N)C[C@H](N)[C@H]3O[C@H]3O[C@H](CO)[C@@H](O)[C@H](O)[C@H]3N)O[C@@H]2CO)[C@H](N)[C@@H](O)[C@@H]1O [PMM, paromomycin sulphate]
[3]; ED50 (50% growth inhibition)
  CI value of combination Dn + DhiS-A: 1.98 (antagonism)
[3]; ED50
  Dose Required of Dn in combination with DhiS-A: 822 µM
  DRI of Dn in combination with DhiS-A: 39.54
[3]; ED75 (75% growth inhibition)
  CI value of combination Dn + DhiS-A: 1.65 (antagonism)
[3]; ED75
  Dose Required of Dn in combination with DhiS-A: 1145 µM
  DRI of Dn in combination with DhiS-A: 182.9
[3]; ED90 (90% growth inhibition)
  CI value of combination Dn + DhiS-A: 1.38 (moderate antagonism)
[3]; ED90
  Dose Required of Dn in combination with DhiS-A: 1594 µM
  DRI of Dn in combination with DhiS-A: 845.2
[3]; ED95 (95% growth inhibition)
  CI value of combination Dn + DhiS-A: 1.23 (moderate antagonism)
[3]; ED95
  Dose Required of Dn in combination with DhiS-A: 1997 µM
  DRI of Dn in combination with DhiS-A: 2393
[3]
  Type of interaction with DhiS-A: antagonists

## COc1cc([C@H]2Oc3cc([C@H]4Oc5cc(O)cc(O)c5C(=O)[C@@H]4O)ccc3O[C@@H]2CO)ccc1O [Silybin A, silybin A]
[1]
  inhibition of growth at 120 µM: 14.2 ± 7.6%
[2]; Leishmania infantum, 24 h
  inhibition of growth at 120 µM: -3.18 ± 9.09%

## COc1cc([C@@H]2Oc3cc([C@H]4Oc5cc(O)cc(O)c5C(=O)[C@@H]4O)ccc3O[C@H]2CO)ccc1O [Silybin B, silybin B]
[1]
  inhibition of growth at 120 µM: 30.9 ± 5.02%
[2]; Leishmania infantum, 24 h
  inhibition of growth at 120 µM: -3.82 ± 9.11%

## COc1cc([C@@H]2Oc3c(O)cc([C@H]4Oc5cc(O)cc(O)c5C(=O)[C@@H]4O)cc3[C@H]2CO)ccc1O [Silychristin A, silychristin A]
[1]
  inhibition of growth at 120 µM: 19.2 ± 5.75%
[2]; Leishmania infantum, 24 h
  inhibition of growth at 120 µM: 27.1 ± 8.64%
[2]; Leishmania infantum, exploratory screening, 0.94 µM up to 120 µM, read-out: Maximal effect (inhibition of growth of control cultures) on Li promastigotes
  Emax: < 50%

## COc1cc([C@@H]2[C@H]3CO[C@@]4(O)C(=O)[C@@H]2C=C([C@H]2Oc5cc(O)cc(O)c5C(=O)[C@@H]2O)[C@@H]34)ccc1O [Silydianin, silydianin]
[1]
  inhibition of growth at 120 µM: 20.5 ± 3.08%
[2]; Leishmania infantum, 24 h
  inhibition of growth at 120 µM: 16.4 ± 8.63%

## potassium tartrate of antimonium III [Sb^III]
[3]; ED50 (50% growth inhibition)
  CI value of combination Dn + DhiS-A: 1.89 (antagonism)
[3]; ED50
  Dose Required of Dn in combination with DhiS-A: 56 µM
  DRI of Dn in combination with DhiS-A: 0.82
[3]; ED75 (75% growth inhibition)
  CI value of combination Dn + DhiS-A: 2.09 (antagonism)
[3]; ED75
  Dose Required of Dn in combination with DhiS-A: 141.12 µM
  DRI of Dn in combination with DhiS-A: 0.92
[3]; ED90 (90% growth inhibition)
  CI value of combination Dn + DhiS-A: 2.50 (antagonism)
[3]; ED90
  Dose Required of Dn in combination with DhiS-A: 355.63 µM
  DRI of Dn in combination with DhiS-A: 1.04
[3]; ED95 (95% growth inhibition)
  CI value of combination Dn + DhiS-A: 2.93 (antagonism)
[3]; ED95
  Dose Required of Dn in combination with DhiS-A: 666.84 µM
  DRI of Dn in combination with DhiS-A: 1.13
[3]
  Type of interaction with DhiS-A: antagonists
[2]; approximate, dose-response curve, 24 h
  IC50: ~80.6 µM
